This test concerns Bacillus megaterium strain H491. Nature of the test: Chemical sensitivity, Biolog Phenotypic Microarray. The class given is cell-based.
Where [1] appears, read: Biolog Phenotypic Microarray, 25° C.

Here are results for 49 molecules from patent US10602743B2, “Method of inducing drought/salt tolerance using Bacillus megaterium” (Marrone Bio Innovations, Inc., priority 2012, dated 2020).

Counter-ions that a name gives are not always drawn. Like-named read-outs stand apart in the source and are kept apart here.

Turning to `N[C@@H](CC(=O)NO)C(=O)O` [L-Aspartic-b-hydroxamate], the “H491 susceptible to compound” value under setting [1] is on record as “susceptible”.
On the same count and under the same terms, the value for `CCCCCCCCCCCC[N+](C)(C)CCCS(=O)(=O)[O-]` [Lauryl sulfobetaine, N-Dodecyl-N,N-dimethyl-3-ammonio-1-propanesulfonate] was “susceptible”; that for `CCN(CC)CC(=O)Nc1c(C)cccc1C` [Lidocaine] was “susceptible”.
On the same count and under the same terms, the value for `CCC[C@@H]1C[C@@H](C(=O)N[C@@H]([C@H]2O[C@H](SC)[C@H](O)[C@@H](O)[C@H]2O)[C@@H](C)O)N(C)C1` [Lincomycin] was “susceptible”; that for `[Cl-].[Li+]` [Lithium chloride] was “susceptible”; that for `CC1(S(=O)(=O)[O-])CC(=O)c2ccccc2C1=O.[Na+]` (stereo not shown) [Menadione, sodium bisulfite] was “susceptible”.
Regarding `C[n+]1ccc(-c2cc[n+](C)cc2)cc1` [Methyl viologen], the “H491 susceptible to compound” value under setting [1] was “susceptible”.
Same read-out and setting: to `CCCCCCCC[N+](C)(CCCCCCCC)CCCCCCCC.[Cl-]` [Methyltrioctylammonium chloride] belongs “susceptible”; to `CCOc1ccc2ccccc2c1C(=O)N[C@@H]1C(=O)N2[C@@H]1SC(C)(C)[C@@H]2C(=O)O` [Nafcillin], “susceptible”.
`CCn1cc(C(=O)O)c(=O)c2ccc(C)nc21` [Nalidixic acid]: the “H491 susceptible to compound” value under setting [1] was “susceptible”.
The same measure, in the same setting: the value for `CO[C@@H]1[C@@H](OC(N)=O)[C@@H](O)[C@H](Oc2ccc3c(O)c(NC(=O)c4ccc(O)c(CC=C(C)C)c4)c(=O)oc3c2C)OC1(C)C` [Novobiocin] was “susceptible”; that for `CO[C@H]1C[C@H](O[C@H]2[C@H](C)[C@@H](O[C@@H]3O[C@H](C)C[C@H](N(C)C)[C@H]3O)[C@@H](C)C[C@@]3(CO3)C(=O)[C@H](C)[C@@H](O)[C@@H](C)[C@@H](C)OC(=O)[C@@H]2C)O[C@@H](C)[C@@H]1O` [Oleandomycin, phosphate salt] was “susceptible”; that for `Cc1ncc([N+](=O)[O-])n1CC(O)CCl` (stereo not shown) [Ornidazole] was “susceptible”.
The same measure, in the same setting: to `Cc1ccccc1C(OCCN(C)C)c1ccccc1` (stereo not shown) [Orphenadrine] belongs “susceptible”; to `Cc1onc(-c2ccccc2)c1C(=O)N[C@@H]1C(=O)N2[C@@H]1SC(C)(C)[C@@H]2C(=O)O` [Oxacillin], “susceptible”.
For `CC1=C(C(=O)Nc2ccccc2)S(=O)(=O)CCO1` [Oxycarboxin], the “H491 susceptible to compound” value under setting [1] was “susceptible”.
Still for that read-out and setting: to `NC[C@@H]1O[C@H](O[C@H]2[C@@H](O)[C@H](O[C@@H]3[C@@H](O)[C@H](N)C[C@H](N)[C@H]3O[C@H]3O[C@H](CO)[C@@H](O)[C@H](O)[C@H]3N)O[C@@H]2CO)[C@H](N)[C@@H](O)[C@@H]1O` [Paromomycin] belongs “susceptible”.
The same measure, in the same setting: to `O=C1C=C2C(=CCOC2O)O1` (stereo not shown) [Patulin] belongs “susceptible”; to `CC1(C)S[C@@H]2[C@H](NC(=O)Cc3ccccc3)C(=O)N2[C@H]1C(=O)O` [Penicillin G], “susceptible”.
On the same count and under the same terms, to `Oc1c(Cl)c(Cl)c(Cl)c(Cl)c1Cl` [Pentachlorophenol] belongs “susceptible”; to `CC(Oc1ccccc1)C(=O)N[C@@H]1C(=O)N2[C@@H]1SC(C)(C)[C@@H]2C(=O)O` (stereo partly shown) [Phenethicilllin], “susceptible”; to `CC1=CC(=O)c2c(O)cccc2C1=O` [Plumbagin], “susceptible”.
On to `O=[Te]([O-])[O-].[K+].[K+]` [Potassium tellurite], for which, under setting [1], the “H491 susceptible to compound” value was “susceptible”.
The same measure, in the same setting: to `OC(CCN1CCCCC1)(c1ccccc1)c1ccccc1` [Pridinol] belongs “susceptible”; to `Nc1ccc2cc3ccc(N)cc3nc2c1` [Proflavine], “susceptible”; to `CC(CN1c2ccccc2Sc2ccccc21)N(C)C` (stereo not shown) [Promethazine], “susceptible”.
For `COc1ccc(C[C@H](N)C(=O)N[C@H]2[C@@H](O)[C@H](n3cnc4c(N(C)C)ncnc43)O[C@@H]2CO)cc1` [Puromycin], the “H491 susceptible to compound” value under setting [1] is on record as “susceptible”.
On the same count and under the same terms, to `CO[C@H]1/C=C/O[C@@]2(C)Oc3c(C)c([O-])c4c(O)c(cc(O)c4c3C2=O)NC(=O)/C(C)=C\C=C\[C@H](C)[C@H](O)[C@@H](C)[C@@H](O)[C@@H](C)[C@H](OC(C)=O)[C@@H]1C.[Na+]` [Rifamycin SV] belongs “susceptible”.
As to `O=C([O-])c1ccccc1O.[Na+]` [Salicylate, sodium], the “H491 susceptible to compound” value is “susceptible”.
On to `C[n+]1cc2c3c(ccc2c2ccc4cc5c(cc4c21)OCO5)OCO3` [Sanguinarine chloride], for which the “H491 susceptible to compound” value under setting [1] is on record as “susceptible”.
Take `NNC(N)=O` [Semicarbazide hydrochloride]: under setting [1], the “H491 susceptible to compound” value was “susceptible”.
Still for that read-out and setting: to `CN[C@@H]1[C@@H](O)[C@@H](O[C@@H]2[C@@H](O)[C@H](O[C@H]3OC(CN)=CC[C@H]3N)[C@@H](N)C[C@H]2N)OC[C@]1(C)O` [Sisomicin] belongs “susceptible”; to `O=[As]O` [Sodium Arsenite], “susceptible”.
With `CCCCCCCC(=O)[O-].[Na+]` [Sodium Caprylate], the “H491 susceptible to compound” value under setting [1] was “susceptible”.
Same read-out and setting: to `N#CO` [Sodium Cyanate] belongs “susceptible”; to `[Na+].[Na+].[O]=[Cr](=[O])([O-])[O][Cr](=[O])(=[O])[O-]` [Sodium Dichromate], “susceptible”.
In the case of `O=NO` [Sodium Nitrite], the “H491 susceptible to compound” value is “susceptible”.
Regarding `[Na+].[Na+].[O]=[W](=[O])([O-])[O-]` [Sodium Tungstate], the “H491 susceptible to compound” value under setting [1] is “susceptible”.
On the same count and under the same terms, to `O=B[O-].[Na+]` [Sodium metaborate] belongs “susceptible”; to `[Na+].[Na+].[Na+].[O]=[V]([O-])([O-])[O-]` [Sodium orthovanadate], “susceptible”; to `[Na+].[O-][I+3]([O-])([O-])[O-]` [Sodium periodate], “susceptible”.
Same read-out and setting: the value for `Nc1ccc(S(=O)(=O)Nc2ccc(Cl)nn2)cc1` [Sulfachloropyridazine] was “susceptible”.
Same read-out and setting: the value for `Nc1ccc(S(=O)(=O)Nc2ncccn2)cc1` [Sulfadiazine] was “susceptible”; that for `Cc1cc(NS(=O)(=O)c2ccc(N)cc2)no1` [Sulfamethoxazole] was “susceptible”; that for `Nc1ccc(S(N)(=O)=O)cc1` [Sulfanilamide] was “susceptible”.
Regarding `Nc1ccc(S(=O)(=O)Nc2nccs2)cc1` [Sulfathiazole], the “H491 susceptible to compound” value under setting [1] is “susceptible”.
As to `CCN(CC)C(=S)SSC(=S)N(CC)CC` [Tetraethylthiuram disulfide], the “H491 susceptible to compound” value under setting [1] is given as “susceptible”.
Still for that read-out and setting: to `c1ccc(-c2nn(-c3ccccc3)[n+](-c3cccc4ccccc34)n2)cc1` [Tetrazolium violet] belongs “susceptible”; to `CC(=O)[O-].[Tl+]` [Thallium (I) acetate], “susceptible”.
